What all share (assay): NCI tumour cell line growth inhibition, 48 h
The subject of assay [1] is OVCAR-3 ovarian.
For assay [2], the system named is XF 498 CNS.
The subject of assay [3] is DLD-1 colon.
Assay [4] has as its system RXF 393 renal.
In assay [5] the test system is DMS 114 small cell lung.
Assay [6] relates to COLO 205 colon.
For assay [7], the system named is MDA-MB-435.
The subject of assay [8] is HCT-15 colon.
The subject of assay [9] is BT-549 breast.
Assay [10] has as its system DU-145 prostate.
Assay [11] relates to PC-3 prostate.
Assay [12] has as its system KM20L2 colon.

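In this assay, cells in 96-well plates receive the compound at five concentrations for 48 hours. Endpoints are linearly interpolated between the surrounding concentrations. Abbreviation: GI50, concentration required for 50% inhibition of growth. The concentration for full growth arrest is given as TGI.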

Turning to `COc1c(Cl)cc(S(=O)O)cc1Cl`, the TGI in assay [1], in assay [2], in assay [3], in assay [4] and in assay [5] was greater than 100 µM throughout.
As for `Fc1ccc(-c2nnc3sc(COc4ccccc4Cl)nn23)cc1Cl`, the GI50 in [6] was 43.7 µM; in [7] it was 49.5 µM; in [8] it was 17.7 µM; in assay [9], 22.9 µM; in assay [10], 29.8 µM; in assay [11], 30.7 µM. Besides, in [4], the GI50 is 38.1 µM. The TGI in assay [6] is greater than 100 µM; in [7], greater than 100 µM; in assay [8], 48.7 µM; in [9] it was 64.4 µM; in [10], greater than 100 µM; in [11] it was greater than 100 µM. In assay [4], this compound registered a TGI of 69.2 µM.
As for `c1ccc2sc(SCN(C3CCCCC3)C3CCCCC3)nc2c1`, the TGI in assay [7], in [8], in assay [1], in assay [9], in assay [10] and in assay [11] was greater than 100 µM in each case. The TGI in assay [4] was greater than 100 µM.
Take `CC(CO)(CO)Nc1ncnc2ccccc12`: the TGI in assay [7], in assay [8], in assay [1], in assay [9], in [10] and in assay [11] was greater than 100 µM each time. In assay [4], this compound came in with a TGI greater than 100 µM.
As for `Nc1nnc(N)n1NC(=O)C(=O)Nc1ccc([N+](=O)[O-])cc1`, the TGI in assay [6], in [12], in assay [8], in assay [2], in assay [3] and in assay [4] was greater than 100 µM throughout. This compound came in with a TGI in assay [5] greater than 100 µM.
For `NC(=O)Nc1cc(O)ccc1N=Nc1ccc(S(=O)(=O)Nc2ccccn2)cc1`, the TGI in [6], in assay [12], in assay [8], in [1], in assay [2] and in [5] was greater than 100 µM each time.
In the case of `COc1cc(O)c2c(c1)C(=O)c1cc(C)cc(O)c1C2=O`, the TGI in [6], in [12], in [1], in [3] and in [5] was greater than 100 µM throughout.

For the origin of these results see PubChem BioAssay (NCI).
